32 compounds from publication PMC11551755, “Structure-based discovery of first inhibitors targeting the helicase activity of human PIF1” (Nucleic Acids Research, 2024) can be followed below.

Values joined by “and” are separate entries in the source; they are usually repeats but may differ in a detail not shown here. Equal values may be shown once. Read-outs that look alike come from different tables or passages of the source.

In this assay the target is T1, FLhPIF1 (full length human PIF1) (Homo sapiens, UniProt Q9H611).
T1 construct: Full length human PIF1 (FLhPIF1) was expressed and purified as a His-SUMO fusion; His-SUMO (cleaved yes); made in house; 'following similar protocols' to hPIF1HD (ArcticExpress BL21(DE3) E. coli)
T1 sequence (Q9H611 1-641): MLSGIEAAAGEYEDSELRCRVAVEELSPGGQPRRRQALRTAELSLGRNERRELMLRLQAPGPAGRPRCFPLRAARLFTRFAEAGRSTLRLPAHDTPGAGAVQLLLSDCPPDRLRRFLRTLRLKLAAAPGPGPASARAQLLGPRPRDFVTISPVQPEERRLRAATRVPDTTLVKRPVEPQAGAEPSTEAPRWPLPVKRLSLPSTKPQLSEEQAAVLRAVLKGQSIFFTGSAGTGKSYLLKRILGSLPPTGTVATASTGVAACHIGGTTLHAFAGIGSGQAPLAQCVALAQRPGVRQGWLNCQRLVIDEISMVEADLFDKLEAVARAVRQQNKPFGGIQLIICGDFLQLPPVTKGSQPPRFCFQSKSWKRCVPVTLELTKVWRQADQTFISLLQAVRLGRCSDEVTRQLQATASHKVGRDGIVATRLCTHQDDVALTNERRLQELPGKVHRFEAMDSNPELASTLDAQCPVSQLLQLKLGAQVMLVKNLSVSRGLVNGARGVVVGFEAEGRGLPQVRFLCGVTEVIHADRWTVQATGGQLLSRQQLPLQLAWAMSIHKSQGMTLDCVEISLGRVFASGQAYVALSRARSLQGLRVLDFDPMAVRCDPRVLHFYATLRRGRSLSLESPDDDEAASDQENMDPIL
The experiment in a line: radiometric strand displacement helicase assay, no pre-incubation. Type of assay: biochemical. Conditions: for inhibition at 1000 µM: 1 mM single point, gel-based DNA unwinding assay, four repeats (S4 n=3); for IC50: n = 3. As to the method: Helicase activity was assayed using a radiometric strand displacement assay employing a partially single- and double-stranded substrate generated by annealing two oligonucleotides: 5′-(T)55-[…] and 5′-[…], as described previously ([19],[28]). […] SMIs (100 mM stocks in DMSO) were assayed at up to 2 mM without pre-incubation with FLhPIF1, unless otherwise stated. […] Dried gels were exposed to phosphorimaging plates (Fujifilm) for imaging and quantification (Fuji FLA3000, image gauge V3.3 software). IC50 values were analysed by non-linear regression (variable slope) using GraphPad Prism.

Setting [1] is: 0.0078–2 mM compound, 10 nM FLhPIF1, 0.1 nM DNA substrate, no pre-incubation, read-out: IC50 for inhibition of FLhPIF1 helicase activity.

With `CC(=O)Nc1ccc(-c2csc(N)n2)cc1` [Compound 1E], the “helicase inhibitory activity compared to commercial batches 1A–1C” value (0.0078-2 mM, no pre-incubation) is listed as “significantly lower inhibitory activities”.

Usually inhibition stands for the relative decrease from the control value, in per cent. A word on the IC50: it is the concentration at which inhibition is half-maximal. Consider `CC(=O)Nc1ccc(-c2csc(N)n2)cc1` [Compound 1F], for which the inhibition at 1000 µM is 14.2 ± 7%. Besides, the IC50 under setting [1] was ~1160 µM and 1160 µM. Further, under “no pre-incubation, value with large error, read-out: IC50 against FLhPIF1 helicase”, the IC50 was roughly 1200 µM.

For `Nc1nc(-c2ccc([N+](=O)[O-])cc2)cs1` [Compound 3], the inhibition at 1000 µM was 85.6 ± 5.1%. Besides, under setting [1], the IC50 turned out to be 184 ± 13 µM.

`CC(=O)Nc1ccc(-c2csc(NC(C)=O)n2)cc1` [Compound 7]: the inhibition at 1000 µM came out at 57 ± 14.7%. Further, the “fold increase in inhibition at 1 mM relative to compound 1” value (1 mM single point helicase screen) came out at 4 fold. For the same compound, under setting [1], the IC50 was found to be 569 ± 139 µM.

In the case of `CNCCNc1cc(-c2csc(N)n2)ccc1[N+](=O)[O-]` [Compound 8], the inhibition at 1000 µM was found to be 77.8 ± 7.9%. For the same compound, under setting [1], the 50% inhibitory concentration (IC50) came to 176 ± 6 µM.

Consider `CC(=O)Nc1ccc(-c2csc(N)n2)cc1N1CCNCC1` [Compound 9], for which the inhibition at 1000 µM worked out at 69.1 ± 5.5%. Besides, the IC50 under setting [1] was 307 ± 16 µM.

For the compound `CC(=O)Nc1ccc(-c2csc(C)n2)cc1` [S2], the “inhibition of FLhPIF1 helicase activity in 1 mM single-point screen” value (from here on “inhibition of FLhPIF1 helicase activity”) is listed as “only minimal activity” and the inhibition at 1000 µM is -3 ± 2.8%.

With `CNc1nc(-c2ccc(NC(C)=O)cc2)cs1` [S3], the inhibition at 1000 µM is -6.4 ± 2%.

For the compound `COc1nc(-c2ccc(NC(C)=O)cc2)cs1` [S4], the “inhibition of FLhPIF1 helicase activity” value was “only minimal activity” and the inhibition at 1000 µM is 9.6 ± 2.8%.

Take `Cc1cccc(-c2csc(N)n2)c1` [S7]: the inhibition at 1000 µM is -8.1 ± 1.9%.

In the case of `Cc1ccc(-c2csc(N)n2)cc1` [S8], the “inhibition of FLhPIF1 helicase activity” value was “incapable of inhibiting FLhPIF1 helicase activity effectively” and the inhibition at 1000 µM was 43.9 ± 5.7%.

Turning to `N#Cc1cccc(-c2csc(N)n2)c1` [S9], the inhibition at 1000 µM was -12.6 ± 4.6%.

In the case of `Nc1nc(-c2cccc(OC(F)(F)F)c2)cs1` [S10], the inhibition at 1000 µM is 59.5 ± 1.7%.

For `Nc1nc(-c2ccc(OC(F)(F)F)cc2)cs1` [S11], the inhibition at 1000 µM stood at 58.3 ± 9.1%.

As to `COC(=O)c1cccc(-c2csc(N)n2)c1` [S12], the inhibition at 1000 µM is -11 ± 1%.

Turning to `CCCNC(=O)c1cccc(-c2csc(N)n2)c1` [S13], the inhibition at 1000 µM was determined as 0.2 ± 1.4%.

For the compound `CCN(CC)C(=O)c1ccc(-c2csc(N)n2)cc1` [S14], the inhibition at 1000 µM is -4.6 ± 2.8%.

Regarding `CNC(=O)c1ccc(-c2csc(N)n2)cc1` [S15], the inhibition at 1000 µM stood at 37.9 ± 4.3%.

Regarding `CCOc1ccc(-c2csc(N)n2)cc1` [S16], the inhibition at 1000 µM came out at 25.9 ± 3.2%.

With `Nc1nc(-c2ccc(Oc3ccccc3)cc2)cs1` [S17], the inhibition at 1000 µM was 61.7 ± 8.2%.

As to `Nc1nc(-c2ccc(-c3ccccc3)cc2)cs1` [S18], the “inhibition of FLhPIF1 helicase activity” value is “incapable of inhibiting FLhPIF1 helicase activity effectively” and the inhibition at 1000 µM is -6.7 ± 7.3%.

Take `CS(=O)(=O)c1ccc(-c2csc(N)n2)cc1` [S19]: the inhibition at 1000 µM was 46.6 ± 15.5%.

In the case of `COC(=O)Cc1ccc(-c2csc(N)n2)cc1` [S20], the inhibition at 1000 µM came to 35.9 ± 9.9%.

For `Nc1nc(-c2ccc(S(N)(=O)=O)cc2)cs1` [S21], the inhibition at 1000 µM is -17.3 ± 4.2%.

With `CC(=O)Nc1ccc(-c2csc(N)n2)cc1C(C)=O` [S24], the inhibition at 1000 µM was determined as 10.4 ± 3.3%.

With `CC(=O)Nc1ccc(-c2csc(N)n2)cc1C(C)O` (centres unmarked) [S25], the inhibition at 1000 µM worked out at 42.5 ± 13.5%.

Turning to `CCN(CC)c1cc(-c2csc(N)n2)ccc1NC(C)=O` [S47], the inhibition at 1000 µM was found to be 24.6 ± 8.9%.

As for `CC(=O)Nc1ccc(-c2csc(N)n2)cc1N1CCOCC1` [S48], the inhibition at 1000 µM stood at 11.5 ± 3.7%.

As to `CC(=O)Nc1ccc(-c2csc(N)n2)cc1N1CCN(C)CC1` [S49], the inhibition at 1000 µM is 24.3 ± 5.9%.

In the case of `COc1cc(-c2csc(N)n2)ccc1NC(C)=O` [S50], the inhibition at 1000 µM turned out to be 22.1 ± 5%.

Take `CC(=O)Nc1ccc(-c2csc(N)n2)cc1OC1CCCC1` [S51]: the inhibition at 1000 µM stood at 50 ± 4.2%.

For the compound `CC(=O)Nc1ccc(-c2csc(N)n2)cc1-c1cccnc1` [S55], the “inhibition of FLhPIF1 helicase activity” value is recorded as “did not display any inhibitory activity at all” and the inhibition at 1000 µM was -17.3 ± 5%.
